Reference: ChEMBL document CHEMBL1157274, “Two new maytansinoids from maytenus buchananii” (1999)

Tests used:
[1] = system: KB; experiment: Cytotoxicity against human KB cells; type: functional
[2] = system: P388; experiment: In vivo antitumor activity against mouse P388 cells at 0.1 to 1.6 ug/kg; type: functional

SMILES: COc1cc2cc(c1Cl)N1CC(=O)C(C)(O)C(=O)N(C)[C@@H](C)C(=O)O[C@@H](CC1=O)[C@@]1(C)O[C@H]1[C@H](C)[C@@H]1C[C@@](O)(NC(=O)O1)[C@H](OC)/C=C/C=C(\C)C2 (some centres not stated) [MAYTANBICYCLINOL]
- ED50 [1]: <1 ×10⁻⁵ ug/ml
- T/C [2]: 140%
